Laboratory results as given in PubChem BioAssay (NCI).
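Cultured in 96-well plates, cells were exposed to test compound for 48 hours across five concentrations. TGI denotes the concentration required for complete inhibition of growth.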

Assays:
Experiment in all cases: growth of human tumour cells (NCI), 48 h
786-0 renal = test system: 786-0 renal
A498 renal = test system: A498 renal
A549 NSCLC = test system: A549 NSCLC
ACHN renal = test system: ACHN renal
CAKI-1 renal = test system: CAKI-1 renal
CCRF-CEM leukemia = test system: CCRF-CEM leukemia
COLO 205 colon = test system: COLO 205 colon
DLD-1 colon = test system: DLD-1 colon
DMS 114 small cell lung = test system: DMS 114 small cell lung
DMS 273 small cell lung = test system: DMS 273 small cell lung
HCC-2998 colon = test system: HCC-2998 colon
HCT-116 colon = test system: HCT-116 colon
HCT-15 colon = test system: HCT-15 colon
HL-60(TB) leukemia = test system: HL-60(TB) leukemia
HOP-18 NSCLC = test system: HOP-18 NSCLC
HOP-62 NSCLC = test system: HOP-62 NSCLC
HT29 colon = test system: HT29 colon
IGROV1 ovarian = test system: IGROV1 ovarian
K-562 leukemia = test system: K-562 leukemia
KM12 colon = test system: KM12 colon
KM20L2 colon = test system: KM20L2 colon
LOX IMVI melanoma = test system: LOX IMVI melanoma
LXFL 529 NSCLC = test system: LXFL 529 NSCLC
M14 melanoma = test system: M14 melanoma
M19-MEL melanoma = test system: M19-MEL melanoma
MALME-3M melanoma = test system: MALME-3M melanoma
MOLT-4 leukemia = test system: MOLT-4 leukemia
NCI-H226 lung = test system: NCI-H226 lung
NCI-H23 lung = test system: NCI-H23 lung
NCI-H460 lung = test system: NCI-H460 lung
NCI-H522 lung = test system: NCI-H522 lung
OVCAR-3 ovarian = test system: OVCAR-3 ovarian
OVCAR-4 ovarian = test system: OVCAR-4 ovarian
OVCAR-5 ovarian = test system: OVCAR-5 ovarian
OVCAR-8 ovarian = test system: OVCAR-8 ovarian
RPMI-8226 leukemia = test system: RPMI-8226 leukemia
RXF 393 renal = test system: RXF 393 renal
SF-268 CNS = test system: SF-268 CNS
SF-295 CNS = test system: SF-295 CNS
SF-539 CNS = test system: SF-539 CNS
SK-MEL-2 melanoma = test system: SK-MEL-2 melanoma
SK-MEL-28 melanoma = test system: SK-MEL-28 melanoma
SK-MEL-5 melanoma = test system: SK-MEL-5 melanoma
SK-OV-3 ovarian = test system: SK-OV-3 ovarian
SN12C renal = test system: SN12C renal
SNB-19 CNS = test system: SNB-19 CNS
SNB-75 CNS = test system: SNB-75 CNS
SNB-78 CNS = test system: SNB-78 CNS
SW-620 colon = test system: SW-620 colon
TK-10 renal = test system: TK-10 renal
U251 CNS = test system: U251 CNS
UACC-257 melanoma = test system: UACC-257 melanoma
UO-31 renal = test system: UO-31 renal
EKVX NSCLC = test system: EKVX NSCLC
HOP-92 NSCLC = test system: HOP-92 NSCLC
SR leukemia = test system: SR leukemia
UACC-62 melanoma = test system: UACC-62 melanoma
BT-549 breast = test system: BT-549 breast
DU-145 prostate = test system: DU-145 prostate
HS 578T breast = test system: HS 578T breast
MCF7 breast = test system: MCF7 breast
MDA-MB-231 breast = test system: MDA-MB-231 breast
MDA-MB-435 = test system: MDA-MB-435
MDA-N = test system: MDA-N
NCI/ADR-RES ovarian = test system: NCI/ADR-RES ovarian
PC-3 prostate = test system: PC-3 prostate
T-47D breast = test system: T-47D breast

CCN(CC)c1cccc2c1C1(O)CCC3(CC21)OCCCCO3 (configuration not stated)
TGI (786-0 renal): > 100 µM | TGI (A498 renal): > 100 µM | TGI (A549 NSCLC): > 100 µM | TGI (ACHN renal): > 100 µM | TGI (CAKI-1 renal): > 100 µM | TGI (CCRF-CEM leukemia): > 100 µM | TGI (COLO 205 colon): > 100 µM | TGI (DLD-1 colon): > 100 µM | TGI (DMS 114 small cell lung): > 100 µM | TGI (DMS 273 small cell lung): > 100 µM | TGI (HCC-2998 colon): > 100 µM | TGI (HCT-116 colon): > 100 µM | TGI (HCT-15 colon): > 100 µM | TGI (HL-60(TB) leukemia): > 100 µM | TGI (HOP-18 NSCLC): > 100 µM | TGI (HOP-62 NSCLC): > 100 µM | TGI (HT29 colon): > 100 µM | TGI (IGROV1 ovarian): > 100 µM | TGI (K-562 leukemia): > 100 µM | TGI (KM12 colon): > 100 µM | TGI (KM20L2 colon): > 100 µM | TGI (LOX IMVI melanoma): > 100 µM | TGI (LXFL 529 NSCLC): > 100 µM | TGI (M14 melanoma): > 100 µM | TGI (M19-MEL melanoma): > 100 µM | TGI (MALME-3M melanoma): > 100 µM | TGI (MOLT-4 leukemia): > 100 µM | TGI (NCI-H226 lung): > 100 µM | TGI (NCI-H23 lung): > 100 µM | TGI (NCI-H460 lung): > 100 µM | TGI (NCI-H522 lung): > 100 µM | TGI (OVCAR-3 ovarian): > 100 µM | TGI (OVCAR-4 ovarian): > 100 µM | TGI (OVCAR-5 ovarian): > 100 µM | TGI (OVCAR-8 ovarian): > 100 µM | TGI (RPMI-8226 leukemia): > 100 µM | TGI (RXF 393 renal): 53.6 µM | TGI (SF-268 CNS): > 100 µM | TGI (SF-295 CNS): > 100 µM | TGI (SF-539 CNS): > 100 µM | TGI (SK-MEL-2 melanoma): > 100 µM | TGI (SK-MEL-28 melanoma): > 100 µM | TGI (SK-MEL-5 melanoma): > 100 µM | TGI (SK-OV-3 ovarian): > 100 µM | TGI (SN12C renal): > 100 µM | TGI (SNB-19 CNS): 41 µM | TGI (SNB-75 CNS): > 100 µM | TGI (SNB-78 CNS): > 100 µM | TGI (SW-620 colon): > 100 µM | TGI (TK-10 renal): > 100 µM | TGI (U251 CNS): > 100 µM | TGI (UACC-257 melanoma): > 100 µM | TGI (UO-31 renal): > 100 µM

COc1ccccc1/C=N/N=C(\N)NO
TGI (786-0 renal): 90 µM | TGI (A498 renal): > 100 µM | TGI (A549 NSCLC): 81.1 µM | TGI (ACHN renal): > 100 µM | TGI (CAKI-1 renal): > 100 µM | TGI (CCRF-CEM leukemia): > 100 µM | TGI (COLO 205 colon): > 100 µM | TGI (DLD-1 colon): > 100 µM | TGI (DMS 114 small cell lung): > 100 µM | TGI (EKVX NSCLC): > 100 µM | TGI (HCC-2998 colon): 29.2 µM | TGI (HCT-116 colon): > 100 µM | TGI (HCT-15 colon): > 100 µM | TGI (HOP-18 NSCLC): > 100 µM | TGI (HOP-62 NSCLC): 76.6 µM | TGI (HOP-92 NSCLC): 65.6 µM | TGI (HT29 colon): > 100 µM | TGI (IGROV1 ovarian): > 100 µM | TGI (K-562 leukemia): > 100 µM | TGI (KM12 colon): > 100 µM | TGI (LOX IMVI melanoma): > 100 µM | TGI (LXFL 529 NSCLC): > 100 µM | TGI (M19-MEL melanoma): > 100 µM | TGI (MALME-3M melanoma): > 100 µM | TGI (MOLT-4 leukemia): > 100 µM | TGI (NCI-H226 lung): 90.7 µM | TGI (NCI-H23 lung): > 100 µM | TGI (NCI-H460 lung): > 100 µM | TGI (NCI-H522 lung): 66.9 µM | TGI (OVCAR-3 ovarian): > 100 µM | TGI (OVCAR-4 ovarian): > 100 µM | TGI (OVCAR-5 ovarian): 24.3 µM | TGI (RPMI-8226 leukemia): > 100 µM | TGI (RXF 393 renal): > 100 µM | TGI (SF-268 CNS): > 100 µM | TGI (SF-295 CNS): 12.3 µM | TGI (SF-539 CNS): 9.4 µM | TGI (SK-MEL-2 melanoma): > 100 µM | TGI (SK-MEL-28 melanoma): > 100 µM | TGI (SK-MEL-5 melanoma): 25.6 µM | TGI (SK-OV-3 ovarian): > 100 µM | TGI (SN12C renal): > 100 µM | TGI (SNB-19 CNS): > 100 µM | TGI (SNB-78 CNS): > 100 µM | TGI (SR leukemia): > 100 µM | TGI (SW-620 colon): > 100 µM | TGI (U251 CNS): > 100 µM | TGI (UACC-257 melanoma): > 100 µM | TGI (UACC-62 melanoma): 33.7 µM | TGI (UO-31 renal): > 100 µM

CC(=O)N1C2=CCCC2(C)c2ccccc21 (configuration not stated)
TGI (786-0 renal): > 100 µM | TGI (A498 renal): > 100 µM | TGI (A549 NSCLC): > 100 µM | TGI (ACHN renal): > 100 µM | TGI (BT-549 breast): > 100 µM | TGI (CAKI-1 renal): > 100 µM | TGI (CCRF-CEM leukemia): > 100 µM | TGI (COLO 205 colon): > 100 µM | TGI (DU-145 prostate): > 100 µM | TGI (EKVX NSCLC): > 100 µM | TGI (HCC-2998 colon): 99.7 µM | TGI (HCT-116 colon): > 100 µM | TGI (HCT-15 colon): > 100 µM | TGI (HL-60(TB) leukemia): 83.6 µM | TGI (HOP-62 NSCLC): > 100 µM | TGI (HOP-92 NSCLC): > 100 µM | TGI (HS 578T breast): > 100 µM | TGI (HT29 colon): > 100 µM | TGI (IGROV1 ovarian): > 100 µM | TGI (K-562 leukemia): > 100 µM | TGI (KM12 colon): > 100 µM | TGI (LOX IMVI melanoma): > 100 µM | TGI (M14 melanoma): > 100 µM | TGI (MALME-3M melanoma): > 100 µM | TGI (MCF7 breast): > 100 µM | TGI (MDA-MB-231 breast): > 100 µM | TGI (MDA-MB-435): > 100 µM | TGI (MDA-N): > 100 µM | TGI (MOLT-4 leukemia): > 100 µM | TGI (NCI-H226 lung): > 100 µM | TGI (NCI-H23 lung): > 100 µM | TGI (NCI-H460 lung): > 100 µM | TGI (NCI-H522 lung): 94.8 µM | TGI (NCI/ADR-RES ovarian): > 100 µM | TGI (OVCAR-3 ovarian): > 100 µM | TGI (OVCAR-4 ovarian): > 100 µM | TGI (OVCAR-5 ovarian): > 100 µM | TGI (OVCAR-8 ovarian): > 100 µM | TGI (PC-3 prostate): > 100 µM | TGI (RPMI-8226 leukemia): 45.6 µM | TGI (RXF 393 renal): > 100 µM | TGI (SF-268 CNS): > 100 µM | TGI (SF-295 CNS): > 100 µM | TGI (SF-539 CNS): > 100 µM | TGI (SK-MEL-2 melanoma): > 100 µM | TGI (SK-MEL-28 melanoma): > 100 µM | TGI (SK-MEL-5 melanoma): > 100 µM | TGI (SK-OV-3 ovarian): > 100 µM | TGI (SN12C renal): > 100 µM | TGI (SNB-19 CNS): > 100 µM | TGI (SNB-75 CNS): > 100 µM | TGI (SR leukemia): > 100 µM | TGI (SW-620 colon): > 100 µM | TGI (T-47D breast): > 100 µM | TGI (TK-10 renal): > 100 µM | TGI (U251 CNS): > 100 µM | TGI (UACC-257 melanoma): > 100 µM | TGI (UACC-62 melanoma): > 100 µM | TGI (UO-31 renal): > 100 µM
